Test results reported in patent US12258327B2, “5-membered heteroaryl-containing aminopyridine compounds as EGFR inhibitors” (YUHAN CORPORATION, priority 2021, dated 2025).
Like-named read-outs stand apart in the source and are kept apart here.

Experiments:
EGFR del19/C797S = EGFR del19/C797S (Homo sapiens, UniProt P00533, C797S/DEL746-750); assay: Biochemical EGFR kinase assay (Lance Ultra TR-FRET), double mutant del19/C797S
Protocol: Biochemical EGFR kinase assays were conducted using Lance Ultra time-resolved fluorescence resonance energy transfer (TR-FRET) technology from Perkin-Elmer. Compounds of the invention were initially diluted to 20 mM in 100% DMSO for storage and made into kinase buffer solution to create a compound concentration ranging from 0.003 μM and 10 μM.
Each kinase reactions were incubated at room temperature for 1 hour and then stopped by the addition of 4 μL of stop solution (10 mM EDTA). The specific Europium-labeled-anti-phosphopeptide antibody (PerkinElmer, AD0069) diluted in LANCE detection buffer was then added to a final concentration of 2 nM. After 60 minutes incubation at room temperature the LANCE signal was measured on an EnVision Multilabel Reader (Perkin-Elmer). Excitation wavelength was set at 320 nm and emission monitored at 615 nm (donor) and 665 nm (acceptor). The IC50 values were determined using GraphPad prism software (GraphPad Software, Inc., San Diego, CA, USA).

EGFR wildtype (WT) = EGFR wildtype (WT) (Homo sapiens, UniProt P00533); assay: Biochemical EGFR kinase assay (Lance Ultra TR-FRET), wildtype
Chain of EGFR wildtype (WT) (P00533 25-1210): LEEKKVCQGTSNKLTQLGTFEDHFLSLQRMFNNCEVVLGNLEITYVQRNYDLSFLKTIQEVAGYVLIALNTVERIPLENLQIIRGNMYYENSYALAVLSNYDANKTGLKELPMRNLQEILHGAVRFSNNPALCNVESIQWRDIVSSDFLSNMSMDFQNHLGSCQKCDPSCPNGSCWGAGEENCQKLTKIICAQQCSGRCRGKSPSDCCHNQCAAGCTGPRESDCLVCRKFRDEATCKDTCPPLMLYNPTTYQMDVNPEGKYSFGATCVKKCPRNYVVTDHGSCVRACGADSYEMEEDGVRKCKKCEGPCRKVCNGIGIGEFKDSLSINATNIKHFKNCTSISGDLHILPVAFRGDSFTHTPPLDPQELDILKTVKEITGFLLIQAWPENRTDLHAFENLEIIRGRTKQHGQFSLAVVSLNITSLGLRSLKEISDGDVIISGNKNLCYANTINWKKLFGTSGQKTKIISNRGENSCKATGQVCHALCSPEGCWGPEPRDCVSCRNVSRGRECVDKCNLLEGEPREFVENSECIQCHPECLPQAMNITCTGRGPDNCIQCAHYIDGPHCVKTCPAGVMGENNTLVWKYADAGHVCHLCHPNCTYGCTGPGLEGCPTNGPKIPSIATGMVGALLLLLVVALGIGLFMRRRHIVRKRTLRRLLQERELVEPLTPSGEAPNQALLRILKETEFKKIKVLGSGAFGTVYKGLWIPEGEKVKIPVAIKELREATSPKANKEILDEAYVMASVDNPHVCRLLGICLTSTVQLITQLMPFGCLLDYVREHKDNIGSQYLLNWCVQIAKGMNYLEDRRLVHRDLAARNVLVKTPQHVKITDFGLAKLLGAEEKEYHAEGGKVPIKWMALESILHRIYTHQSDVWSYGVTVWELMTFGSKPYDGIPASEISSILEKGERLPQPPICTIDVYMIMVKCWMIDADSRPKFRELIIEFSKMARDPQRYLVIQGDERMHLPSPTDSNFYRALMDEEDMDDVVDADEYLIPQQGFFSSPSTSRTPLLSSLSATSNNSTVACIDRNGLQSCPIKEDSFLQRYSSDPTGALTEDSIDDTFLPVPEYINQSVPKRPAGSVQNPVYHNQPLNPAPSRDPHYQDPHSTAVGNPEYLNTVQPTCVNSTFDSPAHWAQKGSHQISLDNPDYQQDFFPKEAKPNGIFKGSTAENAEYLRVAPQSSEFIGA
Outline: (§1)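 Enzyme reactions lasted 1 hour at room temperature with test compounds between 0.003 and 10 μM, followed by 10 mM EDTA quench.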

EGFR L858R/C797S = EGFR L858R/C797S (Homo sapiens, UniProt P00533, C797S/L858R); assay: Biochemical EGFR kinase assay (Lance Ultra TR-FRET), double mutant L858R/C797S
Chain of EGFR L858R/C797S (P00533 25-1210 C797S/L858R): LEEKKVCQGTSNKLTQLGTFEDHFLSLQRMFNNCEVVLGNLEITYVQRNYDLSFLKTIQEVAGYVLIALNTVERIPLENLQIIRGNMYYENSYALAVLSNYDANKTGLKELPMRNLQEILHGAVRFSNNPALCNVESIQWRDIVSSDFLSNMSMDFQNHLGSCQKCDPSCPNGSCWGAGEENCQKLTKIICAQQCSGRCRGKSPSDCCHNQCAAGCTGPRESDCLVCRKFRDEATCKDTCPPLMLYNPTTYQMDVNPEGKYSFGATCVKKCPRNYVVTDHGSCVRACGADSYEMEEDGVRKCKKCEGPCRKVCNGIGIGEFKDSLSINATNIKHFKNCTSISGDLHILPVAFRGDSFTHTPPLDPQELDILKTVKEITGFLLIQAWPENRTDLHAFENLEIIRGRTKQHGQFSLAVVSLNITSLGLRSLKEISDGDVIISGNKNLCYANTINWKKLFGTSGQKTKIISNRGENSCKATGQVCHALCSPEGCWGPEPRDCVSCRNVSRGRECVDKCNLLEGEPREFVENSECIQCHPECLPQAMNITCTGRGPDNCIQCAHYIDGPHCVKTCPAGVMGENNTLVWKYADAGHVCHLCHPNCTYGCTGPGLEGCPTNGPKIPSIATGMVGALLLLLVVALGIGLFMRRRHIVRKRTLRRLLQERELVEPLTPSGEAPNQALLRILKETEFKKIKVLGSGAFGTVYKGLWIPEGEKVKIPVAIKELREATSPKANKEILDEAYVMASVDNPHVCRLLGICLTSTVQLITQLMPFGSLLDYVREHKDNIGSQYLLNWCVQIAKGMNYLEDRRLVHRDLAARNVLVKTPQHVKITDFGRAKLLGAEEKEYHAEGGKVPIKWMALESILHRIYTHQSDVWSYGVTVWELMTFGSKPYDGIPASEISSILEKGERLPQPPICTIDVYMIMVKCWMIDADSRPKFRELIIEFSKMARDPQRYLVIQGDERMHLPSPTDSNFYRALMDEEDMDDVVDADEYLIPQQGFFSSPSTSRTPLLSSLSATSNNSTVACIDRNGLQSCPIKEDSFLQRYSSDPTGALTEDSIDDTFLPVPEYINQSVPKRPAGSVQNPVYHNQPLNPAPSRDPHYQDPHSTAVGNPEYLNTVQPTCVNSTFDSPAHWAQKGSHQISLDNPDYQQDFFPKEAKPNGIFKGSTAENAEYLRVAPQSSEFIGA
Outline: as §1

EGFR del19/T790M/C797S = EGFR del19/T790M/C797S (Homo sapiens, UniProt P00533, C797S/DEL746-750/T790M); assay: Biochemical EGFR kinase assay (Lance Ultra TR-FRET), triple mutant del19/T790M/C797S
Chain of EGFR del19/T790M/C797S (P00533 with tags, fused parts or gaps DEL746-750/T790M/C797S): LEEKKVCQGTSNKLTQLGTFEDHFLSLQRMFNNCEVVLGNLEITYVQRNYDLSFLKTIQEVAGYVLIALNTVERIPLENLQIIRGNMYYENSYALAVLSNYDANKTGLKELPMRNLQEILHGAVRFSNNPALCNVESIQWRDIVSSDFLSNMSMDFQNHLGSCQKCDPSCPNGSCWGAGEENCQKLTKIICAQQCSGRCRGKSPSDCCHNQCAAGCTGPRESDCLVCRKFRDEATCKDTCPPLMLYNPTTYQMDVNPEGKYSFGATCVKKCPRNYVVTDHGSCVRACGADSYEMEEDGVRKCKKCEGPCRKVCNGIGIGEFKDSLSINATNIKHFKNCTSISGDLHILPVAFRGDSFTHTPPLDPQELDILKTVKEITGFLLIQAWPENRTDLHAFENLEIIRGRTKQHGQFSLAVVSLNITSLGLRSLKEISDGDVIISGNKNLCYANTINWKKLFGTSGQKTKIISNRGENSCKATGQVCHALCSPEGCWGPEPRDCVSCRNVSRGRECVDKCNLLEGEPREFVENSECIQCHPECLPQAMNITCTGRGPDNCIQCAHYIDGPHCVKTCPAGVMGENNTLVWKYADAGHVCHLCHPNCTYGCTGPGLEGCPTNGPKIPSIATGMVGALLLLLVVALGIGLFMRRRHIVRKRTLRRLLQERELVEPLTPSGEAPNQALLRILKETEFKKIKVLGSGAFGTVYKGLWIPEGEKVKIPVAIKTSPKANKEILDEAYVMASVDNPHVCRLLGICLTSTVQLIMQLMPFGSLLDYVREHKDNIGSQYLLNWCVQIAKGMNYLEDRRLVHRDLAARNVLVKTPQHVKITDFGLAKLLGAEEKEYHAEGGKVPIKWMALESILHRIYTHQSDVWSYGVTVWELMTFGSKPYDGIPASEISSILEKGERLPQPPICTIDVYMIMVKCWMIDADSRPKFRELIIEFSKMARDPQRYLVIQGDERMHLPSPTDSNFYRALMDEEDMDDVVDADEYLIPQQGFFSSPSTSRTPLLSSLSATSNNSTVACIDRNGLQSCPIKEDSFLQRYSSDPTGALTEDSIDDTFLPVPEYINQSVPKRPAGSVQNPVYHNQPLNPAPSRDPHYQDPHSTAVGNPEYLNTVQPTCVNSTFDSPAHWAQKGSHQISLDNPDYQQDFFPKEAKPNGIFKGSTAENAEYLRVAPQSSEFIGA
Outline: as §1

EGFR L858R/T790M/C797S = EGFR L858R/T790M/C797S (Homo sapiens, UniProt P00533, C797S/L858R/T790M); assay: Biochemical EGFR kinase assay (Lance Ultra TR-FRET), triple mutant L858R/T790M/C797S
Outline: as §1

[1] = Km ATP, read-out: IC50 del19/C797S, Km ATP
[2] = Km ATP, read-out: IC50 WT, Km ATP
[3] = Km ATP, read-out: IC50 L858R/C797S, Km ATP
[4] = Km ATP, read-out: IC50 del19/T790M/C797S, Km ATP
[5] = Km ATP, read-out: IC50 L858R/T790M/C797S, Km ATP
[6] = IC50 del19/T790M/C797S, 100 μM ATP
[7] = IC50 L858R/T790M/C797S, 100 μM ATP
[8] = IC50 del19/C797S (nM) 100 μM ATP, 100 μM ATP
[9] = Km ATP, read-out: IC50 del19/C797S (nM) Km ATP
[10] = IC50 WT (nM) 100 μM ATP, 100 μM ATP
[11] = Km ATP, read-out: IC50 WT (nM) Km ATP
[12] = IC50 L858R/C797S (nM) 100 μM ATP, 100 μM ATP
[13] = Km ATP, read-out: IC50 L858R/C797S (nM) Km ATP
[14] = IC50 del19/T790M/C797S (nM) 100 μM ATP, 100 μM ATP
[15] = Km ATP, read-out: IC50 del19/T790M/C797S (nM) Km ATP
[16] = IC50 L858R/T790M/C797S (nM) 100 μM ATP, 100 μM ATP
[17] = Km ATP, read-out: IC50 L858R/T790M/C797S (nM) Km ATP

Chain of EGFR del19/C797S (P00533 with tags, fused parts or gaps DEL746-750/C797S): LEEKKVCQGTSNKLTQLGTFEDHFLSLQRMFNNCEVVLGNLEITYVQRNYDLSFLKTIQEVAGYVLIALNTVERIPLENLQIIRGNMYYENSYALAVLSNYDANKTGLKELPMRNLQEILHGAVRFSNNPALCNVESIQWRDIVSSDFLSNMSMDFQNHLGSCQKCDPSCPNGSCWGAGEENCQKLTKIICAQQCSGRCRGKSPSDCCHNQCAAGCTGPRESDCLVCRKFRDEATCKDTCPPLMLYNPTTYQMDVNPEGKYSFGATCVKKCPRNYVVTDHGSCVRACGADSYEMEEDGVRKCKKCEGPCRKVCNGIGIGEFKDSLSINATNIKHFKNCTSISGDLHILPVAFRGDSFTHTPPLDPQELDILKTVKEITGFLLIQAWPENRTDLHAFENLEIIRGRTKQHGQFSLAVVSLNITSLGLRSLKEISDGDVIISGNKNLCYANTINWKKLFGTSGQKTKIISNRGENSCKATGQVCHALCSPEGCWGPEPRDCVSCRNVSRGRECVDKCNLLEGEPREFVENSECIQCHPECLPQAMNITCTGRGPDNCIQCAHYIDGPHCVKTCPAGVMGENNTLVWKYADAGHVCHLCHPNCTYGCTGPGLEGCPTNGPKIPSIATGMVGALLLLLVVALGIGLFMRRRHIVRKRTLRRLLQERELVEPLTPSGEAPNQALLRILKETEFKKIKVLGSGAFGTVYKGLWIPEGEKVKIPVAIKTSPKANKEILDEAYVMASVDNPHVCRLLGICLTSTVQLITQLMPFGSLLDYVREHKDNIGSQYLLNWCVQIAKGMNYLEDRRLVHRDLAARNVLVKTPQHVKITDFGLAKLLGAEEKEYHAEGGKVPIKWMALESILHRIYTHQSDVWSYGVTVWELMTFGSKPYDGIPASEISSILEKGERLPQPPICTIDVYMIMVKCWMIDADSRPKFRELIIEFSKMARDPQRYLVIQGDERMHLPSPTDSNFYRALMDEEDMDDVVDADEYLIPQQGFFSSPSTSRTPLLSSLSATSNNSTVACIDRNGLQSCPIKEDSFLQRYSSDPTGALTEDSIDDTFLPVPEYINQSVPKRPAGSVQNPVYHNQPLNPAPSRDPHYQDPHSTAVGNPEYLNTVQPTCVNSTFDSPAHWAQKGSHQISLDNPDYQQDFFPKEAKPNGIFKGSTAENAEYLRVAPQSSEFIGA

| IC50 (EGFR del19/C797S; [1]) [nM] | IC50 (EGFR wildtype (WT); [2]) [nM] | IC50 (EGFR L858R/C797S; [3]) [nM] | IC50 (EGFR del19/T790M/C797S; [4]) [nM] | IC50 (EGFR L858R/T790M/C797S; [5]) [nM] | IC50 (EGFR del19/C797S; IC50 del19/C797S, 100 μM ATP) [nM] | IC50 (EGFR wildtype (WT); IC50 WT, 100 μM ATP) [nM] | IC50 (EGFR L858R/C797S; IC50 L858R/C797S, 100 μM ATP) [nM] | IC50 (EGFR del19/T790M/C797S; [6]) [nM] | IC50 (EGFR L858R/T790M/C797S; [7]) [nM] | IC50 (EGFR del19/C797S; [8]) [nM] | IC50 (EGFR del19/C797S; [9]) [nM] | IC50 (EGFR wildtype (WT); [10]) [nM] | IC50 (EGFR wildtype (WT); [11]) [nM] | IC50 (EGFR L858R/C797S; [12]) [nM] | IC50 (EGFR L858R/C797S; [13]) [nM] | IC50 (EGFR del19/T790M/C797S; [14]) [nM] | IC50 (EGFR del19/T790M/C797S; [15]) [nM] | IC50 (EGFR L858R/T790M/C797S; [16]) [nM] | IC50 (EGFR L858R/T790M/C797S; [17]) [nM] | SMILES |
| --- | --- | --- | --- | --- | --- | --- | --- | --- | --- | --- | --- | --- | --- | --- | --- | --- | --- | --- | --- | --- |
| 7.9 | 98.8 | 4.6 | 1.6 | 0.7 |  |  |  |  |  |  |  |  |  |  |  |  |  |  |  | Cc1nn(CC(F)(F)F)cc1-c1nccc(Nc2cc(N[C@H]3CC[C@@](C)(O)CC3)c(-c3ccn(CC(F)F)n3)cn2)n1 [Example 335, (1s,4s)-4-((5-(1-(2,2-Difluoroethyl)-1H-pyrazol-3-yl)-2-((2-(3-methyl-1-(2,2,2-trifluoroethyl)-1H-pyrazol-4-yl)pyrimidin-4-yl)amino)pyridin-4-yl)amino)-1-methylcyclohexan-1-ol] |
| 99 | 400 | 48.2 | 1.9 | 0.7 | 329 | > 10000 | 449 | 3.1 | 1.9 |  |  |  |  |  |  |  |  |  |  | CC1(O)CCC(Nc2cc(Nc3ccnc(N4CC(CO)C(C)(C)C4)n3)ncc2-c2ccn(C(F)F)n2)CC1 (stereo not drawn) [Example 347, (1s,4s)-4-((5-(1-(Difluoromethyl)-1H-pyrazol-3-yl)-2-((2-(4-(hydroxymethyl)-3,3-dimethylpyrrolidin-1-yl)pyrimidin-4-yl)amino)pyridin-4-yl)amino)-1-methylcyclohexan-1-ol] |
|  |  |  |  |  |  |  |  |  |  | 77.1 | 89.9 | > 10000 | 218 | 590 | 26.2 | 2.4 | 1.1 | 7.7 | 1 | O=S(=O)(C1CC1)n1cc(-c2nccc(Nc3cc(NC4CCCC4O)c(-c4ccn(C(F)F)n4)cn3)n2)cn1 (stereo not drawn) [Example 29, 2-((2-((2-(1-(Cyclopropylsulfonyl)-1H-pyrazol-4-yl)pyrimidin-4-yl)amino)-5-(1-(difluoromethyl)-1H-pyrazol-3-yl)pyridin-4-yl)amino)cyclopentan-1-ol] |
|  |  |  |  |  |  |  |  |  |  | 0.3 | 0.2 | 162 | 0.7 | 2.2 | 0.5 | 0.6 | 0.7 | 0.4 | 0.2 | O=S(=O)(C1CC1)n1cc(-c2nccc(Nc3cc(NC4CCC5(CC4)CNC5)c(-c4ccn(C(F)F)n4)cn3)n2)cn1 [Example 27, N^2-(2-(1-(Cyclopropylsulfonyl)-1H-pyrazol-4-yl)pyrimidin-4-yl)-5-(1-(difluoromethyl)-1H-pyrazol-3-yl)-N^4-(2-azaspiro[3.5]nonan-7-yl)pyridine-2,4-diamine] |
|  |  |  |  |  |  |  |  |  |  | 190 | 202 | > 10000 | 1740 | 1490 | 57 | 9.7 | 10.2 | 13.5 | 3.8 | O=S(=O)(C1CC1)n1cc(-c2nccc(Nc3cc(OC4CCC(OC(F)F)CC4)c(-c4cnn(C(F)F)c4)cn3)n2)cn1 (stereo not drawn) [Example 70, 2-(1-(Cyclopropylsulfonyl)-1H-pyrazol-4-yl)-N-(4-((4-(difluoromethoxy)cyclohexyl)oxy)-5-(1-(difluoromethyl)-1H-pyrazol-4-yl)pyridin-2-yl)pyrimidin-4-amine] |
|  |  |  |  |  |  |  |  |  |  |  | 2.2 |  | 1.7 |  | 0.2 |  | 0.6 |  | 0.3 | COCn1ccc(-c2cnc(Nc3ccnc(-c4cnn(S(=O)(=O)C5CC5)c4)n3)cc2NC(C)C)n1 [Example 303, N^2-(2-(1-(Cyclopropylsulfonyl)-1H-pyrazol-4-yl)pyrimidin-4-yl)-N^4-isopropyl-5-(1-(methoxymethyl)-1H-pyrazol-3-yl)pyridine-2,4-diamine] |
| 133 | 175 | 15.7 | 0.7 | 0.3 | 252 | > 10000 | 275 | 0.9 | 0.8 |  |  |  |  |  |  |  |  |  |  | Cn1nc(-c2cnc(Nc3ccnc(N4CCC(O)C(F)(F)C4)n3)cc2NC2CCC(C)(O)CC2)cc1C(F)(F)F (stereo not drawn) [Example 353, 3,3-Difluoro-1-(4-((4-(((1s,4s)-4-hydroxy-4-methylcyclohexyl)amino)-5-(1-methyl-5-(trifluoromethyl)-1H-pyrazol-3-yl)pyridin-2-yl)amino)pyrimidin-2-yl)piperidin-4-ol] |
|  |  |  |  |  |  |  |  |  |  | 19.1 |  | > 10000 |  | 691 |  | 1 |  | 2.6 |  | O=S(=O)(C1CC1)n1cc(-c2nccc(Nc3cc(N[C@H]4CCCNCC4)c(-c4ccn(C(F)F)n4)cn3)n2)cn1 [Example 17, (S)-N^4-(Azepan-4-yl)-N^2-(2-(1-(cyclopropylsulfonyl)-1H-pyrazol-4-yl)pyrimidin-4-yl)-5-(1-(difluoromethyl)-1H-pyrazol-3-yl)pyridine-2,4-diamine] |
|  |  |  |  |  |  |  |  |  |  | 2.5 | 1 | > 10000 | 18.5 | 45.2 | 1.9 | 1.6 | 0.5 | 2.5 | 0.2 | O=S(=O)(C1CC1)n1cc(-c2nccc(Nc3cc(NCC4CCCC(O)C4)c(-c4ccn(C(F)F)n4)cn3)n2)cn1 (stereo not drawn) [Example 32, 3-(((2-((2-(1-(Cyclopropylsulfonyl)-1H-pyrazol-4-yl)pyrimidin-4-yl)amino)-5-(1-(difluoromethyl)-1H-pyrazol-3-yl)pyridin-4-yl)amino)methyl)cyclohexan-1-ol] |
|  |  |  |  |  |  |  |  |  |  | 0.5 | 0.2 | 1540 | 2.8 | 1.1 | 0.4 | 0.3 | 0.2 | 0.3 | 0.1 | Cn1ccc(-c2cnc(Nc3ccnc(-c4cnn(S(=O)(=O)C5CC5)c4)n3)cc2NCC2CCC(NCCF)CC2)n1 (stereo not drawn) [Example 131, N^2-(2-(1-(Cyclopropylsulfonyl)-1H-pyrazol-4-yl)pyrimidin-4-yl)-N^4-((4-((2-fluoroethyl)amino)cyclohexyl)methyl)-5-(1-methyl-1H-pyrazol-3-yl)pyridine-2,4-diamine] |
| 2.3 | 39.6 | 3.7 | 0.2 | 0.3 |  |  |  |  |  |  |  |  |  |  |  |  |  |  |  | COCn1ccc(-c2cnc(Nc3ccnc(-c4cnn(S(=O)(=O)C5CC5)c4)c3)nc2N[C@H]2CC[C@@](C)(O)CC2)n1 [Example 358, (1s,4s)-4-((2-((2-(1-(Cyclopropylsulfonyl)-1H-pyrazol-4-yl)pyridin-4-yl)amino)-5-(1-(methoxymethyl)-1H-pyrazol-3-yl)pyrimidin-4-yl)amino)-1-methylcyclohexan-1-ol] |
